Laboratory results: publication PMC11594716, “Rhodanine–Piperazine Hybrids as Potential VEGFR, EGFR, and HER2 Targeting Anti-Breast Cancer Agents” (International Journal of Molecular Sciences, 2024)

Columns and labels:
Assay type in all cases: cell-based, human
MDA-MB-468 cell line = experiment: MTT cytotoxicity assay, MDA-MB-468 breast cancer cells; settings: for Selectivity index SI MDA-MB-468: IC50(BJ)/IC50(MDA-MB-468); for IC50: MTT, 48 h incubation
Experimental: (§1) Cytotoxicity of tested compounds was evaluated against breast cancer cell lines (MDA-MB-468, MDA-MB-231, MCF-7, and T47D) and normal human fibroblast BJ cell line as a control. All tested cell lines were obtained from the American Type Culture Collection (ATCC, Manassas, VA, USA). MDA-MB-468 and MDA-MB-231 were cultured in F12-K medium (Corning, New York City, NY, USA), MCF-7 and BJ in EMEM medium (Corning, New York City, NY, USA), and T47D in RPMI medium (Corning, New York City, NY, USA). All of these culture media were supplemented with 10% heat-inactivated FBS (PAN-Biotech, Aidenbach, Germany) and antibiotics (100 U/mL of penicillin, 100 μg/mL of streptomycin, and 0.25 μg/mL amphotericin B, respectively; Sigma-Aldrich, St. Louis, MO, USA) in a humidified 5% CO2 atmosphere at 37 °C. The cells were used exclusively for 10 passages.
(§2) The cells were seeded in 96-well plates at a concentration of 5 × 10^4 cells/mL and incubated at 37 °C with 5% CO2 air. When 70–80% culture confluence was achieved the tested compounds were added. […] The cell viability assessment was measured using the MTT assay (Invitrogen, Waltham, MA, USA) based on the ability of living cells to reduce […] tetrazolium salt, by cellular dehydrogenases, to water-insoluble purple formazan crystals. MTT solution (4 mg/mL) was added to the culture after 48 h of incubation with the tested compounds. Following 4 h of incubation, the medium with MTT salt was removed and the obtained crystals were dissolved in DMSO. The solution absorbency was measured at 570 nm using a PowerWave™ microplate spectrophotometer (Bio-Tek Instruments, Winooski, VT, USA). Each experiment was performed twice with measurement in triplicate. The IC50 values were determined using the AAT Bioquest IC50 calculator with a four parameter logistic regression model (AAT Bioquest, Inc. Pleasanton, CA, USA (14 April 2024). Quest Graph™ IC50 Calculator. AAT Bioquest. https://www.aatbio.com/tools/ic50-calculator, accessed on 12 October 2024).

MDA-MB-231 cell line = experiment: MTT cytotoxicity assay, MDA-MB-231 breast cancer cells; settings: for Selectivity index SI MDA-MB-231: IC50(BJ)/IC50(MDA-MB-231); for IC50: MTT, 48 h incubation
Experimental: as §1, §2

T47D cell line = experiment: MTT cytotoxicity assay, T47D breast cancer cells; settings: for Selectivity index SI T47D: IC50(BJ)/IC50(T47D); for IC50: MTT, 48 h incubation
Experimental: as §1, §2

MCF-7 cell line = experiment: MTT cytotoxicity assay, MCF-7 breast cancer cells; settings: for Selectivity index SI MCF-7: IC50(BJ)/IC50(MCF-7); for IC50: MTT, 48 h incubation
Experimental: as §1, §2

| Compound | Selectivity index SI MDA-MB-468 (MDA-MB-468 cell line) | IC50 (MDA-MB-468 cell line) [µM] | Selectivity index SI MDA-MB-231 (MDA-MB-231 cell line) | IC50 (MDA-MB-231 cell line) [µM] | Selectivity index SI T47D (T47D cell line) | IC50 (T47D cell line) [µM] | Selectivity index SI MCF-7 (MCF-7 cell line) | IC50 (MCF-7 cell line) [µM] | IC50 (MDA-MB-468 cell line; Homo sapiens, MDA-MB-468) [µM] | IC50 (MDA-MB-231 cell line; Homo sapiens, MDA-MB-231) [µM] | IC50 (T47D cell line; Homo sapiens, T47D) [µM] | IC50 (MCF-7 cell line; Homo sapiens, MCF7) [µM] |
| --- | --- | --- | --- | --- | --- | --- | --- | --- | --- | --- | --- | --- |
| 5-{[4-(3-Fluoromethylphenyl)piperazin-1-yl]methylidene}-2-thioxo-1,3-thiazolidin-4-one [Compound 9] | 3.17 | 63 | 1 | > 200 | 1 | > 200 | 2.74 | 73 |  |  |  |  |
| O=C1NC(=S)SC1=CN1CCN(c2ccc(Cl)cc2)CC1 [Compound 5, 5-{[4-(4-Chlorophenyl)piperazin-1-yl]methylidene}-2-thioxo-1,3-thiazolidin-4-one] | 1.19 |  | 1 |  | 1 |  | 1 |  | 168 | > 200 | > 200 | > 200 |
| O=C1NC(=S)SC1=CN1CCN(c2ccc([N+](=O)[O-])cc2)CC1 [Compound 6, 5-{[4-(4-Nitrophenyl)piperazin-1-yl]methylidene}-2-thioxo-1,3-thiazolidin-4-one] | 3.7 |  | 2.17 |  | 1.08 |  | 1 |  | 54 | 92 | 186 | > 200 |
| O=C1NC(=S)SC1=CN1CCN(c2cccc(Cl)c2)CC1 [Compound 7, 5-{[4-(3-Chlorophenyl)piperazin-1-yl]methylidene}-2-thioxo-1,3-thiazolidin-4-one] | 2.1 |  | 1.27 |  | 1 |  | 1 |  | 95 | 157 | > 200 | > 200 |
| O=C1NC(=S)SC1=CN1CCN(c2cccc(F)c2)CC1 [Compound 8, 5-{[4-(3-Fluorophenyl)piperazin-1-yl]methylidene}-2-thioxo-1,3-thiazolidin-4-one] | 1 |  | 1.29 |  | 1 |  | 1 |  | > 200 | 155 | > 200 | > 200 |
| O=C1NC(=S)SC1=CN1CCN(c2ccc(Cl)c(Cl)c2)CC1 [Compound 10, 5-{[4-(3,4-Dichlorophenyl)piperazin-1-yl]methylidene}-2-thioxo-1,3-thiazolidin-4-one] | 3.63 |  | 1.90 |  | 2.2 |  | 6.45 |  | 55 | 105 | 91 | 31 |
| COc1cccc(N2CCN(C=C3SC(=S)NC3=O)CC2)c1 [Compound 11, 5-{[4-(3-Methoxyphenyl)piperazin-1-yl]methylidene}-2-thioxo-1,3-thiazolidin-4-one] | 2.17 |  | 1.25 |  | 1 |  | 1 |  | 92 | 160 | > 200 | > 200 |
| O=C1NC(=S)SC1=CN1CCN(C(c2ccc(F)cc2)c2ccc(F)cc2)CC1 [Compound 12, 5-({4-[Bis(4-fluorophenyl)methyl]piperazin-1-yl}methylidene)-2-thioxo-1,3-thiazolidin-4-one] | 5.41 |  | 1.36 |  | 1 |  | 5.56 |  | 37 | 147 | > 200 | 36 |
| O=C1C(=CN2CCN(c3ccc(Cl)cc3)CC2)SC(=S)N1c1ccccc1 [Compound 13, 5-{[4-(4-Chlorophenyl)piperazin-1-yl]methylidene}-3-phenyl-2-thioxo-1,3-thiazolidin-4-one] | 1.12 |  | 1.38 |  | 1 |  | 2.99 |  | 179 | 145 | > 200 | 67 |
| O=C1C(=CN2CCN(c3cccc(Cl)c3)CC2)SC(=S)N1c1ccccc1 [Compound 14, 5-{[4-(3-Chlorophenyl)piperazin-1-yl]methylidene}-3-phenyl-2-thioxo-1,3-thiazolidin-4-one] | 1 |  | 1 |  | 1 |  | 1 |  | > 200 | > 200 | > 200 | > 200 |
| O=C1C(=CN2CCN(C(c3ccc(F)cc3)c3ccc(F)cc3)CC2)SC(=S)N1c1ccccc1 [Compound 15, 5-({4-[Bis(4-fluorophenyl)methyl]piperazin-1-yl}methylidene)-3-phenyl-2-thioxo-1,3-thiazolidin-4-one] | 4.26 |  | 2.63 |  | 1.06 |  | 4.44 |  | 47 | 76 | 189 | 45 |
| O=C1C(=CN2CCN(c3cccc(F)c3)CC2)SC(=S)N1c1ccccc1 [Compound 16, 5-{[4-(3-Fluorophenyl)piperazin-1-yl]methylidene}-3-phenyl-2-thioxo-1,3-thiazolidin-4-one] | 1 |  | 1.12 |  | 1 |  | 1 |  | > 200 | 179 | > 200 | > 200 |
| COc1cccc(N2CCN(C=C3SC(=S)N(c4ccccc4)C3=O)CC2)c1 [Compound 17, 5-{[4-(3-Methoxyphenyl)piperazin-1-yl]methylidene}-3-phenyl-2-thioxo-1,3-thiazolidin-4-one] | 3.45 |  | 1.69 |  | 1 |  | 1.18 |  | 58 | 118 | > 200 | 169 |
